In patent US12180139B2, “Method for preparing aminoalkanoic acid derivative containing biphenyl group” (AMTIXBIO CO., LTD., priority 2019, dated 2024):

Legend:
B. cereus (+) = assay: Antibacterial MIC test (CLSI); assay type: cell-based; conditions: MHB liquid medium, 37° C., 24 hours
Method: (§1) The MIC test was conducted in accordance CLSI guidelines. […] As a positive control, Nofloxacin and Vancomycin were used.

B. coagulans (+) = assay: Antibacterial MIC test (CLSI); assay type: cell-based; conditions: MHB liquid medium, 37° C., 24 hours
Method: as §1

B. subtilis (+) = assay: Antibacterial MIC test (CLSI); assay type: cell-based; conditions: MHB liquid medium, 37° C., 24 hours
Method: as §1

E. coli (−) = assay: Antibacterial MIC test (CLSI); assay type: cell-based; conditions: MHB liquid medium, 37° C., 24 hours
Method: as §1

L. monocytogenes (+) = assay: Antibacterial MIC test (CLSI); assay type: cell-based; conditions: MHB liquid medium, 37° C., 24 hours
Method: as §1

M. luteus (+) = assay: Antibacterial MIC test (CLSI); assay type: cell-based; conditions: MHB liquid medium, 37° C., 24 hours
Method: as §1

P. acnes (+) = assay: Antibacterial MIC test (CLSI); assay type: cell-based; conditions: MHB liquid medium, 37° C., 24 hours
Method: as §1

S. aureus enterica (−) = assay: Antibacterial MIC test (CLSI); assay type: cell-based; conditions: MHB liquid medium, 37° C., 24 hours
Method: as §1

S. aureus (+) = conditions: MHB liquid medium, 37° C., 24 hours
Method: (§2) The antibacterial activities against Gram-positive bacteria, Gram-negative bacteria or multi-drug resistant bacteria were evaluated for the compounds of the present invention. The MIC test was conducted in accordance CLSI guidelines. E. coli(−), P. aeruginosa(−), and S. enterica(−) were used as Gram-negative bacteria, B. cereus(+), B. subtilis(+), B. coagulans(+), L. monocytogenes(+), M. luteus(+), P. acnes(+), S. epidermidis(+), and S. aureus(+) were used as Gram-positive bacteria. Methicillin-resistant Staphylococcus aureus (MRSA) was used as multi-drug resistant bacteria. The bacterial cells were incubated until the OD600 of the single colonies reached 0.1. […] Subsequently, bacterial cells were incubated at 37° C. for 24 hours, and then the MICs (μg/ ? ) were determined by visual reading and optical density detection at 600 nm (OD600). As a positive control, Nofloxacin and Vancomycin were used.

S. epidermidis (+) = conditions: MHB liquid medium, 37° C., 24 hours
Method: as §2

MRSA = assay: Antibacterial MIC test (CLSI); assay type: cell-based, Methicillin-resistant Staphylococcus aureus; conditions: MHB liquid medium, 37° C., 24 hours
Method: as §1

C. neoformans = conditions: RPMI1640 broth, 35° C., 72 hours, visual reading; expressed as a range value
Method: (§3) An in vitro antifungal susceptibility test was performed in accordance with the US Clinical and Laboratory Standards Institute (CLSI) guidelines to measure the degree of antifungal activity of the compounds synthesized in the Preparation Examples against opportunistic pathogenic fungi. […] The MIC value (μg/ ? ) is expressed as a range value. Specifically, Candida species and Cryptococcus neoformans were incubated in a Sabouraud dextrose agar (SDA) (Sigma-Aldrich) solid medium for 24 and 48 hours, respectively to obtain single colonies. The obtained single colonies were suspended in 0.85% physiological saline to prepare fungal cell suspension (1 to 5×10^6 cells/ ? ). Fungal cells 2000-fold diluted in RPMI1640 broth (Sigma-Aldrich) were seeded on 96-well plates (5×10^2 to 2.5×10^3 cells/ ? , 195 ? /well). Serial two-fold dilutions (128, 64, 32, 16, 8, 4, 2, 1, and 0.5 μg/ ? ) of compounds were prepared by diluting the compounds synthesized according to the above preparation examples. Then, 5 ? from each dilution was added to the well of the 96-well plate containing fungal cell suspension to give a final suspension of 200 ? per well. […] As a positive control, amphotericin B (AMB), which is highly toxic to the human body but is known as a representative antifungal agent, was used.

C. albicans = conditions: RPMI1640 broth, 35° C., 48 hours, visual reading; expressed as a range value
Method: as §3

C. glabrata = conditions: RPMI1640 broth, 35° C., 48 hours, visual reading; expressed as a range value
Method: as §3

A. fumigatus = conditions: visual reading; expressed as a range value
Method: as §3

SMILES	MIC B. cereus (+) (B. cereus (+)) [µg/mL]	MIC B. coagulans (+) (B. coagulans (+)) [µg/mL]	MIC B. subtilis (+) (B. subtilis (+)) [µg/mL]	MIC E. coli (−) (E. coli (−)) [µg/mL]	MIC L. monocytogenes (+) (L. monocytogenes (+)) [µg/mL]	MIC M. luteus (+) (M. luteus (+)) [µg/mL]	MIC P. acnes (+) (P. acnes (+)) [µg/mL]	MIC S. aureus enterica (−) (S. aureus enterica (−)) [µg/mL]	MIC S. aureus (+) (S. aureus (+)) [µg/mL]	MIC S. epidermidis (+) (S. epidermidis (+)) [µg/mL]	MIC MRSA (MRSA) [µg/mL]	MIC (μg/mL) C. neoformans (C. neoformans)	MIC (μg/mL) C. albicans (C. albicans)	MIC (μg/mL) C. glabrata (C. glabrata)	MIC (μg/mL) A. fumigatus (A. fumigatus)
CCC(N)C(=O)NCCc1ccc(-c2ccc(OC(F)(F)F)cc2)cc1.Cl (racemic) [Compound 79, (R)/(S)-2-amino-N-(2-(4′-(trifluoromethoxy)-[1,1′-biphenyl]-4-yl)ethyl)butanamide hydrochloride]	64	<4	16	16	16	16	16	32	16	8	16	8~32 μg/mL	8~32 μg/mL	8~32 μg/mL	8~32 μg/mL
CCCCC(N)C(=O)NCCc1ccc(-c2ccc(OC(F)(F)F)cc2)cc1.Cl (racemic) [Compound 81, (R)/(S)-2-amino-N-(2-(4′-(trifluoromethoxy)-[1,1′-biphenyl]-4-yl)ethyl)hexanamide hydrochloride]	16	<4	4	8	<4	<4	8	16	8	8	8	2~8 μg/mL	2~8 μg/mL	2~8 μg/mL	2~8 μg/mL
CCC(NC)C(=O)NCCc1ccc(-c2ccc(OC(F)(F)F)cc2)cc1.Cl (racemic) [Compound 89, (R)/(S)-2-(methylamino)-N-(2-(4′-(trifluoromethoxy)-[1,1′-biphenyl]-4-yl)ethyl)butanamide hydrochloride]	>64	<4	16	16	16	16	16	32	32	16	32	8~32 μg/mL	8~32 μg/mL	8~32 μg/mL	8~32 μg/mL
CCC(N)C(=O)NCCc1ccc(-c2ccc(Cl)c(Cl)c2)cc1.Cl (racemic) [Compound 73, (R)/(S)-2-amino-N-(2-(3′,4′-dichloro-[1,1′-biphenyl]-4-yl)ethyl)butanamide hydrochloride]	32	<4	8	8	8	8	8	16	8	8	8	2~8 μg/mL	8~32 μg/mL	8~32 μg/mL	8~32 μg/mL
CCCC(NC)C(=O)NCc1ccc(-c2ccc(Cl)c(Cl)c2)cc1.Cl (racemic) [Compound 51, (R)/(S)-N-((3′,4′-dichloro-[1,1′-biphenyl]-4-yl)methyl)-2-(methylamino)pentanamide hydrochloride]	32	4	16	>32	16	16	16	>32	16	16	16	2~8 μg/mL	4~16 μg/mL	4~16 μg/mL	4~16 μg/mL
CCCCC(NC)C(=O)NCCc1ccc(-c2ccc(C(F)(F)F)cc2)cc1.Cl (racemic) [Compound 88, (R)/(S)-2-(methylamino)-N-(2-(4′-(trifluoromethyl)-[1,1′-biphenyl]-4-yl)ethyl)hexanamide hydrochloride]	>64	<4	32	8	<4	>64	<4	>64	8	8	8	2~8 μg/mL	4~16 μg/mL	4~16 μg/mL	4~16 μg/mL
CCCCC(N)C(=O)NCc1ccc(-c2ccc(Cl)c(Cl)c2)cc1.Cl (racemic) [Compound 46, (R)/(S)-2-amino-N-((3′,4′-dichloro-[1,1′-biphenyl]-4-yl)methyl)hexanamide hydrochloride]	16	4	8	32	8	8	8	32	8	8	8	0.5~4 μg/mL	2~8 μg/mL	2~8 μg/mL	2~8 μg/mL
CCC(NC)C(=O)NCCc1ccc(-c2ccc(C(F)(F)F)cc2)cc1.Cl (racemic) [Compound 86, (R)/(S)-2-(methylamino)-N-(2-(4′-(trifluoromethyl)-[1,1′-biphenyl]-4-yl)ethyl)butanamide hydrochloride]	64	<4	32	32	16	16	16	64	32	16	32	8~32 μg/mL	16~64 μg/mL	16~64 μg/mL	16~64 μg/mL
CCCC(NC)C(=O)Nc1ccc(-c2ccc(Cl)c(Cl)c2)cc1.Cl (racemic) [Compound 34, (R)/(S)-N-(3′,4′-dichloro-[1,1′-biphenyl]-4-yl)-2-(methylamino)pentanamide hydrochloride]	8	<4	<4	8	<4	<4	<4	32	<4	<4	<4	2~8 μg/mL	4~16 μg/mL	8~32 μg/mL	8~32 μg/mL
CCC(NC)C(=O)Nc1ccc(-c2ccc(Cl)c(Cl)c2)cc1.Cl (racemic) [Compound 33, (R)/(S)-N-(3′,4′-dichloro-[1,1′-biphenyl]-4-yl)-2-(methylamino)butanamide hydrochloride]	16	<4	8	8	<4	<4	<4	16	8	<4	<4	4~16 μg/mL	8~32 μg/mL	8~32 μg/mL	8~32 μg/mL
